Inhibition data for ten molecules are collected here from publication PMC9516332 (Frontiers in Oncology, 2022).

Read-outs that look alike come from different tables or passages of the source.

What all share (test): Kinase panel profiling at 1 µmol/L (MSA or IMAP), percentage inhibition
Holding throughout (assay type): biochemical

Test [1] addresses panel of 255 wild-type kinases (Homo sapiens, UniProt Q9P0L2). As to conditions: MARK1; 1 µmol/L single concentration; read-out: %-inhibition, MARK1.
Test [2] addresses panel of 255 wild-type kinases (Homo sapiens, UniProt Q8IU85). As to conditions: CaMK1δ kinase assay; 1 µmol/L single concentration; read-out: %-inhibition CaMK1δ.
In test [3] the target is panel of 255 wild-type kinases (Homo sapiens, UniProt Q16512). As to conditions: kinase PKN1; 1 µmol/L single concentration; read-out: %-inhibition at 1 µmol/L, PKN1.
Test [4] deals with T1, panel of 255 wild-type kinases (Homo sapiens, UniProt Q9NRM7).
T1 sequence (Q9NRM7 1-1088): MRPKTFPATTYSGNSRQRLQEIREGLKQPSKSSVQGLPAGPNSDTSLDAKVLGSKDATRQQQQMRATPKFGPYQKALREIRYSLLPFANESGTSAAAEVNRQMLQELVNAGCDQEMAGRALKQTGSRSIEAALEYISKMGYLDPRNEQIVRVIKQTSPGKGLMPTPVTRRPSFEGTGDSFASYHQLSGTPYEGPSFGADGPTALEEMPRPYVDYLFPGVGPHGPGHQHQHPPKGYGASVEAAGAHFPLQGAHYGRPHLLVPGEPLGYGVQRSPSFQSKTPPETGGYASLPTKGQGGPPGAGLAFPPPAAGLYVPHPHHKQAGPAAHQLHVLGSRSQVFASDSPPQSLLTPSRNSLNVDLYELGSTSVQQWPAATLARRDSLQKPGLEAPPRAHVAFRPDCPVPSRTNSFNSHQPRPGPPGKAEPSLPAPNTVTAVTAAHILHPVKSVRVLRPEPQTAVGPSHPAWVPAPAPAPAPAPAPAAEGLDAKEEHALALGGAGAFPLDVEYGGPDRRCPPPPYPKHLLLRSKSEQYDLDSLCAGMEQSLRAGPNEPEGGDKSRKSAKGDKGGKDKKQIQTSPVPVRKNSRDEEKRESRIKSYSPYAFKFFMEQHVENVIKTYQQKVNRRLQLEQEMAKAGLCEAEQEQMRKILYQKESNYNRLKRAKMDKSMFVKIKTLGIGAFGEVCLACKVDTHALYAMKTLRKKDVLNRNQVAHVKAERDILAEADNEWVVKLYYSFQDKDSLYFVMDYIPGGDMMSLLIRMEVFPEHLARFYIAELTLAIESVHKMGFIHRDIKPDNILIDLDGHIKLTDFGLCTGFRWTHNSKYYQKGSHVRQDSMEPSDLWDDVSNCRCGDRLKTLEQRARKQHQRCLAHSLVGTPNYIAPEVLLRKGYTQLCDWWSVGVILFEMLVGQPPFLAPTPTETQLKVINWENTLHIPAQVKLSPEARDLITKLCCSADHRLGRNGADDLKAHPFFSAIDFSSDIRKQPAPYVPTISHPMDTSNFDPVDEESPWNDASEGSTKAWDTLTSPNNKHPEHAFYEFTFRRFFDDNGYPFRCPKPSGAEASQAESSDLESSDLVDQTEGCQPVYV
As to conditions: kinase LATS2; 1 µmol/L single concentration; read-out: %-inhibition at 1 µmol/L, LATS2.

The target of test [5] is T2, panel of 255 wild-type kinases (Homo sapiens, UniProt Q12866).
T2 sequence (Q12866 21-999): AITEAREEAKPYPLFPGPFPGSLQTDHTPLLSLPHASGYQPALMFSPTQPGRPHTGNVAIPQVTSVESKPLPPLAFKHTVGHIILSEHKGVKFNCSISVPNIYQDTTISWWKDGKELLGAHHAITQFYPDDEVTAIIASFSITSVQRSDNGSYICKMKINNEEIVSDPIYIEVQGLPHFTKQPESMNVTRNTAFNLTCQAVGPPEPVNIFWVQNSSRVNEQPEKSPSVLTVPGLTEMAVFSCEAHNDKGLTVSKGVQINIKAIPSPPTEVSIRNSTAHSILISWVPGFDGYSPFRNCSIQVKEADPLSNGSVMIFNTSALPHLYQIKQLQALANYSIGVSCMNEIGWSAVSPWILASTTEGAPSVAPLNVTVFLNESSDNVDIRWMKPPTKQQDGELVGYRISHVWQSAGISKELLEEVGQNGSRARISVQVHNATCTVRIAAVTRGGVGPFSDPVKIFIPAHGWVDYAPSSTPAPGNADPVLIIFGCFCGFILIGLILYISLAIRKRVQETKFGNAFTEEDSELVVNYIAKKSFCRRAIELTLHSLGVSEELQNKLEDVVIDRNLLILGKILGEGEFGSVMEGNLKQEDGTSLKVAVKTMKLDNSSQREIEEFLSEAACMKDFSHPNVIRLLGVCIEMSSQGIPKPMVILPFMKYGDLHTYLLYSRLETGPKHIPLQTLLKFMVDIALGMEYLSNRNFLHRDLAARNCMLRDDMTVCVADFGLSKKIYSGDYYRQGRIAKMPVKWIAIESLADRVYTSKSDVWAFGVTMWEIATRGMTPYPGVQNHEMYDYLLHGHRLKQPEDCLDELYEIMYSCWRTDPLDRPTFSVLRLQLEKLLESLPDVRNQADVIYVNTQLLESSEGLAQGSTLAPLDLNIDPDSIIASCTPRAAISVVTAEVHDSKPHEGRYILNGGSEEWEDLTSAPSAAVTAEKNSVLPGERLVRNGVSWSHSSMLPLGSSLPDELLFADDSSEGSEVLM
As to conditions: read-out: %-inhibition, MER.

Test [6] addresses panel of 255 wild-type kinases (Homo sapiens, UniProt Q13177). As to conditions: PAK2; 1 µmol/L single concentration; read-out: %-inhibition, PAK2.
Test [7] deals with panel of 255 wild-type kinases (Homo sapiens, UniProt P53779). As to conditions: kinase JNK3; 1 µmol/L single concentration; read-out: %-inhibition at 1 µmol/L, JNK3.
For test [8], the target named is panel of 255 wild-type kinases (Homo sapiens, UniProt P49760). As to conditions: kinase CLK2; 1 µmol/L single concentration; read-out: %-inhibition at 1 µmol/L, CLK2.
Test [9] addresses panel of 255 wild-type kinases (Homo sapiens, UniProt P23458). As to conditions: kinase JAK1; 1 µmol/L single concentration; read-out: %-inhibition at 1 µmol/L, JAK1.
The target in test [10] is panel of 255 wild-type kinases (Homo sapiens, UniProt P09619). As to conditions: read-out: %-inhibition at 1 µmol/L, PDGFRβ.
Setting [11] is: MER, 1 µmol/L single concentration.
The mark [12] stands for this setting: kinase PDGFRβ, 1 µmol/L single concentration.

Consider `C=CC(=O)N1CCC([C@@H]2CCNc3c(C(N)=O)c(-c4ccc(Oc5ccccc5)cc4)nn32)CC1` [zanubrutinib], for which the inhibition at 1 µM is -6% in test [1]; -1.26% in test [2]; -11% in [3]; -0.0723% in [4]; 6% in test [5] (setting [11]); 10% in test [6]. The inhibition at 1 µM in [7] was -8%; in [8] it was 7.62%; in test [9], -3%; in test [10] (setting [12]) it was 3.39%.
In the case of `Cn1cnc2c(F)c(Nc3ccc(Br)cc3F)c(C(=O)NOCCO)cc21` [binimetinib], the inhibition at 1 µM is 0.905% in test [1]; -8% in [2]; 6% in test [3]; -3% in [4]; -2.19% in [5] (setting [11]); 12% in test [6]. In addition, the inhibition at 1 µM in test [7] is 7%; in [8], -2.25%; in test [9] it was 5%; in test [10] (setting [12]), -2.23%.
As to `COc1ccc(CN2C3CC2CN(c2ccc(-c4cc(OCC(C)(C)O)cn5ncc(C#N)c45)cn2)C3)cn1` [selpercatinib], the inhibition at 1 µM in [1] is 22%; in test [2], 9%; in test [3] it was 9%; in test [4], -5.4%; in test [5] (setting [11]), 88%; in [6], 5%. The inhibition at 1 µM in [7] was -8.47%; in test [8] it was -2.3%; in [9], 6%; in test [10] (setting [12]), 94%.
Turning to `CCN1C(=O)N(c2c(F)c(OC)cc(OC)c2F)Cc2cnc3[nH]c(CN4CCOCC4)cc3c21` [pemigatinib], the inhibition at 1 µM was 57% in test [1]; 17% in test [2]; 10% in test [3]; -3% in test [4]; 7% in [5] (setting [11]); 6% in [6]. In addition, the inhibition at 1 µM in test [7] was -7%; in [8], 6.37%; in [9] it was -2.65%; in [10] (setting [12]) it was 73%.
For the molecule `CO[C@]1(C(=O)N[C@@H](C)c2ccc(-n3cc(F)cn3)nc2)CC[C@H](c2nc(C)cc(Nc3cc(C)[nH]n3)n2)CC1` [pralsetinib], the inhibition at 1 µM in [1] was -13%; in test [2], -7.54%; in [3], 27%; in test [4], 7.44%; in test [5] (setting [11]), 79%; in test [6] it was 16%. Moreover, the inhibition at 1 µM worked out at 6% in test [7], 9.51% in test [8], 101% in [9] and 99% in [10] (setting [12]).
`C[C@H]1Oc2cc(cnc2N)-c2c(nn(C)c2C#N)CN(C)C(=O)c2ccc(F)cc21` [lorlatinib]: the inhibition at 1 µM in test [1] turned out to be 11%; in [2], 7%; in test [3], 4.68%; in test [4] it was 6%; in test [5] (setting [11]), 11%; in test [6], 11%. Also, the inhibition at 1 µM in test [7] was -8.55%; in test [8], 2.49%; in [9], -0.817%; in test [10] (setting [12]), 2.32%.
As to `CCn1c(=O)c(-c2cc(NC(=O)Nc3ccccc3)c(F)cc2Br)cc2cnc(NC)cc21` [ripretinib], the inhibition at 1 µM in test [1] was -0.571%; in [2], 2.32%; in [3] it was 10%; in test [4], -0.411%; in test [5] (setting [11]) it was -11%; in test [6], 4.69%. The inhibition at 1 µM in test [7] is 10%; in [8], -4%; in test [9] it was 26%; in test [10], 106%.
As for `Cc1nc(NC(=O)N2CCC[C@H]2C(N)=O)sc1-c1ccnc(C(C)(C)C(F)(F)F)c1` [alpelisib], the inhibition at 1 µM in test [1] is -0.158%; in test [2] it was 2%; in test [3], 8%; in [4] it was -1%; in test [5] (setting [11]) it was -3.44%; in [6] it was -7%. Further, the inhibition at 1 µM in test [7] was -12%; in test [8] it was 85%; in [9], -8%; in [10] (setting [12]), 0.0362%.
Take `FC(F)(F)c1ccc(CNc2ccc(Cc3c[nH]c4ncc(Cl)cc34)cn2)cn1` [pexidartinib]: the inhibition at 1 µM in test [1] was 3%; in test [2], 4%; in test [3] it was -4.55%; in test [4], 4%; in [5] (setting [11]) it was 54%; in test [6], -2.4%. Besides, the inhibition at 1 µM in [7] worked out at 0.454%; in test [8], 3.48%; in test [9], 7%; in test [10] (setting [12]), 64%.
As for `CCc1nc(C(N)=O)c(Nc2ccc(N3CCC(N4CCN(C)CC4)CC3)c(OC)c2)nc1NC1CCOCC1` [gilteritinib], the inhibition at 1 µM amounted to 27% in [1]; 39% in test [2]; 65% in [3]; 44% in test [4]; 100% in [5]; 10% in test [6]. Further, the inhibition at 1 µM came out at 52% in test [7], 39% in test [8], 24% in test [9] and 105% in test [10] (setting [12]).
